Reference: US7579018B2, “Microbiological control in aqueous systems” (Albemarle Corporation, priority 2000, dated 2009)

Legend:
[1] = Iodometric titration of clear saturated stock solutions; type: physicochemical; conditions: 1 gram powder slurried in 100 mL deionized water, stirred 20 minutes, filtered
Experimental: Stock solutions of DBDMH and of BCDMH were prepared by slurrying 1 gram of the respective powders in 100 mL of deionized water. After stirring for 20 minutes, the insolubles were filtered to yield clear saturated stock solutions of DBDMH and BCDMH, respectively. Iodometric titration of the stock solutions using the potassium iodide-sodium thiosulfate method indicated the DBDMH solution contained 580 mg/L (as total chlorine), and the BCDMH solution contained 1100 mg/L (as total chlorine).

[2] = system: aerobic bacteria; assay: Cooling tower field trial of 51 days, Example 3: bacteria levels
Text: Using the same cooling tower as used in Example 2, the effectiveness of 1,3-dibromo-5,5-dimethylhydantoin in microbiological control in cooling tower water was investigated. As noted above, the cooling tower consisted of two 500-ton units in a crossflow design. The total system-contained volume was 14,000 gallons, and the tower contained medium efficiency film fill. Water from the tower cooled the coils of two 300-ton air conditioners (chillers). The tower typically operated at a pH of about 9.1 and 4 cycles of concentration. Blowdown was controlled by conductivity. Make-up water consisted of softened city water and which was of good quality. The make-up water was very low in calcium (<10 mg/L) but high in pH (8.7). The alkalinity was 145 mg/L (as CaCO3), and the silica level was 28 mg/L. The tower employed a conventional polyphosphate/molybdate/phosphonate program to provide corrosion and deposit control.
The 1,3-dibromo-5,5-dimethylhydantoin was introduced to the water using granules charged to a solid halogen feeder (Neptune model BT-40, Neptune Chemical Pump Co., Inc., Lansdale, Pa.). The field trial lasted 51 days. The tower was slug dosed three times a week with 1,3-dibromo-5,5-dimethylhydantoin. Slug dosing was accomplished by diverting a sidestream of the recirculating water through the feeder containing the granules for about 1 to 5 hours until a total halogen residual of about 0.75 mg/L (as Cl2) was obtained. This biocide program reduced bacterial levels in the bulk water by an average of 2 orders of magnitude, with bacteria levels in the bulk water after the biocide dose ranging from 10^1 to 10^3 CFUs/mL.
The results from the average of several analyses conducted during the course of this field trial using DBDMH were as follows: In the microbiological tests, the levels of aerobic bacteria were in the range of 6×10^0 to 3×10^3 CFUs/mL in the cooling tower water and 10^0 in the make-up water. […]

CC1(C)C(=O)N(Br)C(=O)N1Br [DBDMH, 1,3-dibromo-5,5-dimethylhydantoin]
halogen content of saturated stock solution (as total chlorine) [1]: 580 mg/L
levels of aerobic bacteria ([2]; in the cooling tower water, several analyses during field trial): 6×10^0 to 3×10^3 CFUs/mL
bacteria levels in the bulk water after the biocide dose ([2]; slug dosed three times a week to total halogen residual about 0.75 mg/L (as Cl2)): 10^1 to 10^3 CFUs/mL
average reduction of bacterial levels in the bulk water ([2]; slug dosed three times a week to total halogen residual about 0.75 mg/L (as Cl2), 51 days): 2 orders of magnitude
